# Results: ChEMBL document CHEMBL3632557, “Ethynylphenyl carbonates and carbamates as dual-action acetylcholinesterase inhibitors and anti-inflammatory agents” (Bioorg Med Chem Lett, 2015)
# Molecular target: Acetylcholinesterase (Electrophorus electricus, UniProt O42275)
# Sequence (O42275 whole entry): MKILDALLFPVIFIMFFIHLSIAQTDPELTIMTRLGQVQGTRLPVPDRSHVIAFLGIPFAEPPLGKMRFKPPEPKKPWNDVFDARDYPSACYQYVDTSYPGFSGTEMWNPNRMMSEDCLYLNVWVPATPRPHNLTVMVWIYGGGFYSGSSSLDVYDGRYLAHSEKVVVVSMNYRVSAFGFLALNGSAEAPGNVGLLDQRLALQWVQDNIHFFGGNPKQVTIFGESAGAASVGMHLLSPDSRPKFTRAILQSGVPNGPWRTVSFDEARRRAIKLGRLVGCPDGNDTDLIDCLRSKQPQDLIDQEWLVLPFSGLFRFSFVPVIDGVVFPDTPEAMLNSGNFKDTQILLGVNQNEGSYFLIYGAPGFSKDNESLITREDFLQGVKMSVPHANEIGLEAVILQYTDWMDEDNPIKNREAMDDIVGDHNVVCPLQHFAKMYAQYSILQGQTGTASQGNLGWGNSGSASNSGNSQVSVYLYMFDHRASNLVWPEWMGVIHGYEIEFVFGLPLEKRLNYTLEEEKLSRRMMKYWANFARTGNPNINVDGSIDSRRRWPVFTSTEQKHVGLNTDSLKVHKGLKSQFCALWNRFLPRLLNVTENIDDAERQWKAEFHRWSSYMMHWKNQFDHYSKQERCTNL
# Description: Inhibition of Electrophorus electricus acetylcholinesterase using acetylthiocholineiodide as substrate measured at 30 secs intervals over 9 mins by Ellman's colorimetric assay
smiles,measurement,value
C#Cc1ccc(OC(=O)OCCC(C)(C)C)cc1,IC50,59 µM
C#Cc1ccc(NC(=O)OCC[Si](C)(C)C)cc1,IC50,34.4 µM
